From the supplement of paper PMC10307832

Compound: CC1=CC(=C(N1C2=CC=C(C=C2)Cl)C)C(=O)CN3CCCCC3 [IU1-47] + CS(=O)(=O)N1CCN(Cc2cc3nc(-c4cccc5[nH]ncc45)nc(N4CCOCC4)c3s2)CC1 [Pictilisib] (partner 1 µM)
Test: relative viability (nuclei count vs DMSO), 5 days (fraction); higher = more cells survive
Details: first compound 0.08 µM
In short: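 One day after seeding in 1536-well plates, lung cancer cell lines were dosed by pin tool. Dosing was either single-drug or a fixed anchor-drug dose plus five library-drug doses (not always all listed) in √10 steps. After 5 days, nuclei were stained in one fix-and-stain step and counted on 4× images, and relative viability is the nuclei count of treated wells over that of vehicle wells, given as the median of duplicate plates.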

Cell Line | relative viability
HCC-366 | 0.215
NCI-H1666 | 0.436
NCI-H596 | 0.393
LK-2 | 0.606
NCI-H2087 | 0.884
SK-MES-1 | 0.402
H3255 | 0.542
COR-L23 | 0.936
COR-L 105 | 0.421
IA-LM | 0.333
LOU-NH91 | 0.502
NCI-H2170 | 0.309
NCI-H2405 | 0.552
HOP-62 | 0.966
HCC-44 | 0.551
A549 | 0.637

Cell Line | relative viability
LU99A | 0.35
BEN | 0.644
HARA | 0.407
HCC-78 | 0.192
NCI-H322M | 0.56
LCLC-97TM1 | 0.194
NCI-H2009 | 0.876
A-427 | 0.736
NCI-H661 | 0.376
NCI-H1734 | 0.463
NCI-H460 | 0.385
NCI-H2347 | 0.505
SK-LU-1 | 0.668
NCI-H1395 | 0.597
201T | 0.672

Same assay, conditions: first compound 0.253 µM

Cell Line | relative viability
NCI-H2085 | 0.426
Calu-6 | 1.07
HCC-366 | 0.115
NCI-H1666 | 0.452
NCI-H596 | 0.367
LK-2 | 0.614
NCI-H2087 | 0.865
SK-MES-1 | 0.396
H3255 | 0.431
COR-L23 | 0.877
COR-L 105 | 0.411
IA-LM | 0.374
LOU-NH91 | 0.529
NCI-H2170 | 0.308
NCI-H2405 | 0.49
HOP-62 | 0.891
HCC-44 | 0.603

Cell Line | relative viability
A549 | 0.53
LU99A | 0.337
BEN | 0.566
HARA | 0.504
HCC-78 | 0.19
NCI-H322M | 0.478
LCLC-97TM1 | 0.258
NCI-H2009 | 0.948
A-427 | 0.84
NCI-H661 | 0.406
NCI-H1734 | 0.442
NCI-H460 | 0.284
NCI-H2347 | 0.651
SK-LU-1 | 0.728
NCI-H1395 | 0.65
201T | 0.682

Same assay, conditions: first compound 0.8 µM

Cell Line | relative viability
NCI-H2085 | 0.422
Calu-6 | 0.861
HCC-366 | 0.149
NCI-H1666 | 0.455
NCI-H596 | 0.405
LK-2 | 0.615
NCI-H2087 | 1.11
SK-MES-1 | 0.351
H3255 | 0.488
COR-L23 | 0.874
COR-L 105 | 0.352
IA-LM | 0.306
LOU-NH91 | 0.429
NCI-H2170 | 0.287
NCI-H2405 | 0.524
HOP-62 | 0.818
HCC-44 | 0.665

Cell Line | relative viability
A549 | 0.542
LU99A | 0.275
BEN | 0.583
HARA | 0.371
HCC-78 | 0.218
NCI-H322M | 0.514
LCLC-97TM1 | 0.204
NCI-H2009 | 0.815
A-427 | 0.789
NCI-H661 | 0.414
NCI-H1734 | 0.464
NCI-H460 | 0.381
NCI-H2347 | 0.446
SK-LU-1 | 0.578
NCI-H1395 | 0.569
201T | 0.709

Same assay, conditions: first compound 2.53 µM

Cell Line | relative viability
NCI-H2085 | 0.47
Calu-6 | 0.972
HCC-366 | 0.137
NCI-H1666 | 0.448
NCI-H596 | 0.429
LK-2 | 0.412
NCI-H2087 | 0.452
SK-MES-1 | 0.398
H3255 | 0.537
COR-L23 | 0.652
COR-L 105 | 0.379
IA-LM | 0.394
LOU-NH91 | 0.512
NCI-H2170 | 0.305
HOP-62 | 0.494
HCC-44 | 0.672
A549 | 0.673
LU99A | 0.312
BEN | 0.41
HARA | 0.509
HCC-78 | 0.189
NCI-H322M | 0.517
NCI-H2009 | 0.369
NCI-H661 | 0.349
NCI-H460 | 0.359
NCI-H2347 | 0.448
SK-LU-1 | 0.58

Same assay, conditions: first compound 8 µM

Cell Line | relative viability
NCI-H2085 | 0.447
Calu-6 | 0.856
HCC-366 | 0.145
NCI-H1666 | 0.407
NCI-H596 | 0.393
LK-2 | 0.474
NCI-H2087 | 0.83
SK-MES-1 | 0.371
H3255 | 0.522
COR-L23 | 0.905
COR-L 105 | 0.396
IA-LM | 0.348
LOU-NH91 | 0.51
NCI-H2170 | 0.331
NCI-H2405 | 0.431
HOP-62 | 0.524
HCC-44 | 0.593

Cell Line | relative viability
A549 | 0.423
LU99A | 0.298
BEN | 0.594
HARA | 0.336
HCC-78 | 0.206
NCI-H322M | 0.513
LCLC-97TM1 | 0.165
NCI-H2009 | 0.882
A-427 | 0.632
NCI-H661 | 0.363
NCI-H1734 | 0.427
NCI-H460 | 0.345
NCI-H2347 | 0.457
SK-LU-1 | 0.382
NCI-H1395 | 0.433
201T | 0.664

Compound: CC1=CC(=C(N1C2=CC=C(C=C2)Cl)C)C(=O)CN3CCCCC3 [IU1-47]
Test: relative viability (nuclei count vs DMSO), 5 days (fraction); higher = more cells survive
Details: 0.08 µM
In short: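 Nuclei counted with MetaXpress define viability as the ratio of treated to vehicle wells, given as a median across plates. The lung cancer cell lines were in 1536-well plates, pinned with five √10-spaced library-drug doses and imaged at 4× after 5 days and Hoechst staining. Plates passed with control CV below 25% and at least one doubling.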

Cell Line | relative viability
NCI-H2085 | 1.05
Calu-6 | 1
HCC-366 | 1.03
NCI-H1666 | 0.953
NCI-H596 | 1.19
